# T1: N-acylethanolamine acid amidase (NAAA) (Rattus norvegicus, UniProt Q5KTC7)
# T1 sequence (Q5KTC7 34-130): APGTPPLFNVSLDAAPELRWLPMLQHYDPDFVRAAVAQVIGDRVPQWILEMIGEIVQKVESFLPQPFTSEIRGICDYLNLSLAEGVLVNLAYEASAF
# T1 sequence (Q5KTC7 131-362): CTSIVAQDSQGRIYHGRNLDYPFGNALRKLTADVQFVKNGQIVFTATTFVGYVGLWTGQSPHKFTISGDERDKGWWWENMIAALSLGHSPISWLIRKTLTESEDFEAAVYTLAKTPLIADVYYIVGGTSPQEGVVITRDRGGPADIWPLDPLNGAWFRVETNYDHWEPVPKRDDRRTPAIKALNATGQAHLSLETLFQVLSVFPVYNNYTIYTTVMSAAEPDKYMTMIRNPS
# Assays:
# [1] = target: T1, N-acylethanolamine acid amidase (NAAA); test: LC/MS enzyme activity assay in HEK-rNAAA cell preparations; type: biochemical
# [2] = substrate: CCCCCC/C=C\CCCCCCCCC(=O)NCCO; test: Michaelis-Menten analysis by LC/MS of heptadecenoic acid formation; type: biochemical, Rattus norvegicus
IC50 [1] [nM],Molecule,Vmax [2] [µmol/min/mg]
11,"C[C@@H]1OC(=O)[C@@H]1NC(=O)OCCCCCc1ccccc1 [ARN077, 5-phenylpentyl N-[(2S,3R)-2-methyl-4-oxo-oxetan-3-yl] carbamate]",–
–,N-acylethanolamine acid amidase (NAAA) (Rattus norvegicus) (protein) chain 1: APGTPPLFNVSLDAAPELRWLPMLQHYDPDFVRAAVAQVIGDRVPQWILEMIGEIVQKVESFLPQPFTSEIRGICDYLNLSLAEGVLVNLAYEASAF chain 2: CTSIVAQDSQGRIYHGRNLDYPFGNALRKLTADVQFVKNGQIVFTATTFVGYVGLWTGQSPHKFTISGDERDKGWWWENMIAALSLGHSPISWLIRKTLTESEDFEAAVYTLAKTPLIADVYYIVGGTSPQEGVVITRDRGGPADIWPLDPLNGAWFRVETNYDHWEPVPKRDDRRTPAIKALNATGQAHLSLETLFQVLSVFPVYNNYTIYTTVMSAAEPDKYMTMIRNPS,0.0154

# Reference: PMC3723234 (Pain, 2012)
